Assay results published in PubChem BioAssay (NCI).
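Dose response: 5 concentrations. Exposure: 48 h. Format: 96-well plates. Endpoint: linear interpolation; highest concentration if not reached. Abbreviation: GI50, concentration required for 50% inhibition of growth. TGI: total growth inhibition.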

Tests used:
Experiment in all cases: NCI-60 cell line screen, 48 h
SF-539 CNS = tested on: SF-539 CNS
HOP-92 NSCLC = tested on: HOP-92 NSCLC
HOP-62 NSCLC = tested on: HOP-62 NSCLC
OVCAR-5 ovarian = tested on: OVCAR-5 ovarian
CCRF-CEM leukemia = tested on: CCRF-CEM leukemia
NCI-H226 lung = tested on: NCI-H226 lung
OVCAR-4 ovarian = tested on: OVCAR-4 ovarian
SR leukemia = tested on: SR leukemia
TK-10 renal = tested on: TK-10 renal
NCI-H460 lung = tested on: NCI-H460 lung
K-562 leukemia = tested on: K-562 leukemia
MALME-3M melanoma = tested on: MALME-3M melanoma
HT29 colon = tested on: HT29 colon
LOX IMVI melanoma = tested on: LOX IMVI melanoma
OVCAR-3 ovarian = tested on: OVCAR-3 ovarian
SW-620 colon = tested on: SW-620 colon
MCF7 breast = tested on: MCF7 breast
U251 CNS = tested on: U251 CNS
EKVX NSCLC = tested on: EKVX NSCLC
HS 578T breast = tested on: HS 578T breast
SN12C renal = tested on: SN12C renal
NCI/ADR-RES ovarian = tested on: NCI/ADR-RES ovarian
786-0 renal = tested on: 786-0 renal
UACC-257 melanoma = tested on: UACC-257 melanoma
NCI-H522 lung = tested on: NCI-H522 lung
DU-145 prostate = tested on: DU-145 prostate
RXF 393 renal = tested on: RXF 393 renal
SF-268 CNS = tested on: SF-268 CNS

Question: Which TGI (SF-539 CNS) does the source give for `N#C/C(=C/c1cccs1)c1cccs1` here?
Answer: > 100 µM

Question: What about the GI50 (HOP-92 NSCLC) of the same compound?
Answer: 27.8 µM

Question: What about the TGI (HOP-92 NSCLC) of the same compound?
Answer: > 100 µM

Question: And the GI50 (HOP-62 NSCLC)?
Answer: > 100 µM

Question: And the TGI (HOP-62 NSCLC)?
Answer: > 100 µM

Question: And the GI50 (OVCAR-5 ovarian)?
Answer: > 100 µM

Question: And the TGI (OVCAR-5 ovarian)?
Answer: > 100 µM

Question: And the GI50 (CCRF-CEM leukemia)?
Answer: > 100 µM

Question: What about the TGI (CCRF-CEM leukemia) of the same compound?
Answer: > 100 µM

Question: And the GI50 (NCI-H226 lung)?
Answer: > 100 µM

Question: What about the TGI (NCI-H226 lung) of the same compound?
Answer: > 100 µM

Question: What about the GI50 (OVCAR-4 ovarian) of the same compound?
Answer: > 100 µM

Question: What about the TGI (OVCAR-4 ovarian) of the same compound?
Answer: > 100 µM

Question: What about the GI50 (SR leukemia) of the same compound?
Answer: > 100 µM

Question: What about the TGI (SR leukemia) of the same compound?
Answer: > 100 µM

Question: What about the GI50 (TK-10 renal) of the same compound?
Answer: > 100 µM

Question: What about the TGI (TK-10 renal) of the same compound?
Answer: > 100 µM

Question: What about the GI50 (NCI-H460 lung) of the same compound?
Answer: > 100 µM

Question: What about the TGI (NCI-H460 lung) of the same compound?
Answer: > 100 µM

Question: What about the GI50 (K-562 leukemia) of the same compound?
Answer: > 100 µM

Question: And the TGI (K-562 leukemia)?
Answer: > 100 µM

Question: What about the GI50 (MALME-3M melanoma) of the same compound?
Answer: > 100 µM

Question: What about the TGI (MALME-3M melanoma) of the same compound?
Answer: > 100 µM

Question: And the GI50 (HT29 colon)?
Answer: > 100 µM

Question: What about the TGI (HT29 colon) of the same compound?
Answer: > 100 µM

Question: And the GI50 (LOX IMVI melanoma)?
Answer: > 100 µM

Question: And the TGI (LOX IMVI melanoma)?
Answer: > 100 µM

Question: What about the GI50 (OVCAR-3 ovarian) of the same compound?
Answer: > 100 µM

Question: And the TGI (OVCAR-3 ovarian)?
Answer: > 100 µM

Question: And the GI50 (SW-620 colon)?
Answer: > 100 µM

Question: And the TGI (SW-620 colon)?
Answer: > 100 µM

Question: And the GI50 (MCF7 breast)?
Answer: > 100 µM

Question: And the TGI (MCF7 breast)?
Answer: > 100 µM

Question: What about the GI50 (U251 CNS) of the same compound?
Answer: > 100 µM

Question: What about the TGI (U251 CNS) of the same compound?
Answer: > 100 µM

Question: And the GI50 (EKVX NSCLC)?
Answer: > 100 µM

Question: And the TGI (EKVX NSCLC)?
Answer: > 100 µM

Question: What about the GI50 (HS 578T breast) of the same compound?
Answer: 99.3 µM

Question: And the TGI (HS 578T breast)?
Answer: > 100 µM

Question: What about the GI50 (SN12C renal) of the same compound?
Answer: > 100 µM

Question: And the TGI (SN12C renal)?
Answer: > 100 µM

Question: And the GI50 (NCI/ADR-RES ovarian)?
Answer: > 100 µM

Question: What about the TGI (NCI/ADR-RES ovarian) of the same compound?
Answer: > 100 µM

Question: And the GI50 (786-0 renal)?
Answer: > 100 µM

Question: And the TGI (786-0 renal)?
Answer: > 100 µM

Question: What about the GI50 (UACC-257 melanoma) of the same compound?
Answer: > 100 µM

Question: And the TGI (UACC-257 melanoma)?
Answer: > 100 µM

Question: And the GI50 (NCI-H522 lung)?
Answer: > 100 µM

Question: What about the TGI (NCI-H522 lung) of the same compound?
Answer: > 100 µM

Question: And the GI50 (DU-145 prostate)?
Answer: > 100 µM

Question: And the TGI (DU-145 prostate)?
Answer: > 100 µM

Question: And the GI50 (RXF 393 renal)?
Answer: 38 µM

Question: And the TGI (RXF 393 renal)?
Answer: > 100 µM

Question: What about the GI50 (SF-268 CNS) of the same compound?
Answer: > 100 µM

Question: And the TGI (SF-268 CNS)?
Answer: > 100 µM
